Reference: US20260240941A1, “TREATMENT AND PREVENTION OF AGENT-INDUCED LIVER CONDITIONS OR DISEASES” (FARSIGHT MEDICAL TECHNOLOGY (SHANGHAI) CO., LTD., priority 2023, published 2026)
Entries after “also recorded” stand apart in the source; their conditions may differ.

Tests used:
C57BL/6J wild-type mice [1] = assay: Acetaminophen-induced liver injury model in mice; assay type: in vivo; conditions: for Necrotic Area (%) of the liver (liver tissue protection): 5 mg/kg and 10 mg/kg i.v. 1 h after APAP 300 mg/kg i.p.; for Necrotic Area (%) of the liver (liver tissue protection) / ALT biomarker level / AST biomarker level: vs APAP alone
Experimental: C57BL/6J wild-type mice were purchased from Guangdong Medical Animal Centre (Guangzhou, China). Male mice (n=8, 8 weeks of age) were randomly assigned to the different treatment groups. Mice were acclimatized to their environment for 1 week before the experiments. Animals were fasted overnight, but allowed access to water, before acetaminophen (APAP) administration.
APAP (Sigma Aldrich) was dissolved in warm phosphate-buffered saline (PBS; 55° C.) that was cooled to 37° C. before injection and administered intraperitoneally with APAP at a dose of 300 mg/kg after 15 hours of starvation. Compound 1 was made fresh for each experiment in sterile 0.9% saline at 20 mg/ml. N-acetylcysteine (NAC, Sigma Aldrich) was made fresh for each experiment in 0.9% saline at 20 mg/ml.
After APAP administration (1 hours), either PBS (Control Group), Compound 1 (10 mg/kg, 5 mg/kg, 2.5 mg/kg, 1 mg/kg) or NAC (150 mg/kg) were injected intravenously in the tail vein of mice. In the Control Group, the mice were injected with phosphate-buffered saline vehicle (labelled “Ctrl” in the Figures), in the Vigilance Group the mice were injected with Compound 1 (labelled “v-Compound 1-10 mg” in the Figures). In both the Control and Vigilance Groups, no APAP was administered.
Mice were sacrificed at 6 and 24 hours after administration of APAP. Blood samples and livers were harvested for serum ALT (alanine aminotransferase) and AST (aspartate aminotransferase), and histology. ALT and AST in serum samples were detected using the alanine aminotransferase assay kit (S03030) and the aspartate aminotransferase assay kit (S03040) and automated clinical chemistry analyzer (Chemray 800) from Rayto.
All liver sections were stained with a hematoxylin and eosin (H&E) stain. Necrotic area was measured and expressed as a percentage of necrotic tissue in whole area of liver section. All animal procedures were approved by the Laboratory Animals Ethics Committee of Jinan University (Guangzhou, China).

C57BL/6J wild-type mice [2] = assay: Alcohol-induced liver injury in mice (chronic 8 weeks ethanol diet plus multiple binges, E8w+nB); assay type: in vivo; conditions: 10 mg/kg i.p. daily for the last two weeks of 8 weeks alcohol plus binges
Text: C57BL/6J wild-type mice were purchased from Guangdong Medical Animal Centre (Guangzhou, China). Male mice (n=7, 8 weeks of age) were randomly assigned to the different treatment groups. The mice were initially fed a controlled Lieber-DeCarli diet ad libitum for 5 days (TP4030C, Trophic Animal Feed High-Tech Co., Ltd, China) to acclimatize them to a liquid diet. Subsequently, the ethanol-fed groups were allowed free access for 8 weeks to an ethanol diet (TP4030D, Trophic) containing 5% (vol/vol) ethanol.
Chronic (8 weeks)-plus-multiple binges (E8w+nB): mice were fed an ethanol Lieber-DeCarli diet for 8 weeks as described above and treated by gavage administration twice a week (5 g/kg ethanol) during the 8-week feeding. Mice were euthanized 9 h post gavage.
The control mice were pair-fed an isocaloric control liquid diet for 8 weeks (P8w), followed by gavage administration of isocaloric liquid dextrin-maltose (Ctrl), without exposure to alcohol.
Compound 1 was made fresh for each experiment in sterile 0.9% saline at 20 mg/ml and administered intraperitoneally (10 mg/kg) daily for the last two weeks.
Blood samples and livers were harvested for serum ALT and AST, and histology. All liver sections were stained with H&E and Oil Red O staining. The features of alcoholic liver disease (“ALD”) are scored according to the non-alcoholic fatty liver disease (“NAFLD”) activity score (“NAS”) originally developed to measure changes in NAFLD during therapeutic trials but is also applicable to ALD. The ALD score of each group was calculated according to standard procedures.
Oil Red O is a fat-soluble azo dye, used to stain fats, specifically neutral triglycerides, lipids and lipoproteins in tissues and cells. […] The Oil Red O quantification “a.v.” means a subjective quantity, i.e., “arbitrary value”. The image quantification software ImageJ was used to select the area of oil red staining in liver sections and the area of lipid droplets in quantitative sections.

[3] = 5 mg/kg and 10 mg/kg i.v., 6 hours after APAP
[4] = 5 mg/kg and 10 mg/kg i.v., 24 hours after APAP
[5] = all Compound 1 levels (1, 2.5, 5, 10 mg/kg i.v.), 6 hours after APAP
[6] = all Compound 1 levels (1, 2.5, 5, 10 mg/kg i.v.), 24 hours after APAP

C/C=C/C[C@@H](C)[C@@H](O)[C@H]1C(=O)N[C@@H](CC)C(=O)N(C)[C@H](OCCN(C)C)C(=O)N(C)[C@@H](CC(C)C)C(=O)N[C@@H](C(C)C)C(=O)N(C)[C@@H](CC(C)C)C(=O)N[C@@H](C)C(=O)N[C@H](C)C(=O)N(C)[C@@H](CC(C)C)C(=O)N(C)[C@@H](CC(C)C)C(=O)N(C)[C@@H](C(C)C)C(=O)N1C [Compound 1, [(R)-2′(2-dimethylaminoethoxy)-Sar]^3 cyclosporin A]
TNF-α, IL-1β, and/or IL-6 inflammation biomarker levels of the liver (C57BL/6J wild-type mice [1]; 2.5 mg/kg, 5 mg/kg and 10 mg/kg i.v., 6 hours after APAP): reduced
Necrotic Area (%) of the liver (liver tissue protection) (C57BL/6J wild-type mice [1]; 6 hours after APAP): showed liver tissue protection; also recorded: reduced necrotic area
Necrotic Area (%) of the liver (liver tissue protection) (C57BL/6J wild-type mice [1]; 24 hours after APAP): showed liver tissue protection; also recorded: reduced necrotic area
IL-1β inflammation biomarker (ELISA) (C57BL/6J wild-type mice [1]; [3]): reduced
IL-6 inflammation biomarker (ELISA) (C57BL/6J wild-type mice [1]; [3]): reduced
TNF-α inflammation biomarker (ELISA) (C57BL/6J wild-type mice [1]; [3]): reduced
ALT biomarker level (C57BL/6J wild-type mice [1]; [3]): reduced
AST biomarker level (C57BL/6J wild-type mice [1]; [3]): reduced
IL-1β inflammation biomarker (ELISA) (C57BL/6J wild-type mice [1]; [4]): reduced
IL-6 inflammation biomarker (ELISA) (C57BL/6J wild-type mice [1]; [4]): reduced
TNF-α inflammation biomarker (ELISA) (C57BL/6J wild-type mice [1]; [4]): reduced
ALT biomarker level (C57BL/6J wild-type mice [1]; [4]): reduced
AST biomarker level (C57BL/6J wild-type mice [1]; [4]): reduced
serum ALT (alanine aminotransferase) biomarker level (C57BL/6J wild-type mice [1]; [5]): reduced
serum AST (aspartate aminotransferase) biomarker level (C57BL/6J wild-type mice [1]; [5]): reduced
TNF-α, IL-1β, and/or IL-6 inflammation biomarker levels of the liver (C57BL/6J wild-type mice [1]; [6]): reduced
serum ALT (alanine aminotransferase) biomarker level (C57BL/6J wild-type mice [1]; [6]): reduced
serum AST (aspartate aminotransferase) biomarker level (C57BL/6J wild-type mice [1]; [6]): reduced
serum ALT (alanine aminotransferase) level (C57BL/6J wild-type mice [2]; vs untreated ALD): reduces
serum AST (aspartate aminotransferase) level (C57BL/6J wild-type mice [2]; vs untreated ALD): reduces
hepatic lipid accumulation (Oil Red O liver staining, a.v.) (C57BL/6J wild-type mice [2]; vs untreated ALD Group): reduces hepatic lipid accumulation
